Numbered stars: 1 amine (or outer) side, 2 acyl side, 3 side chain; on linkers, the order of the positions; unused ones are H or OH. Square brackets hold non-standard residues; d marks the D form. Side chains are listed from the residue outwards. Peptide text beside a SMILES is read from it. * marks the point of attachment. Palmitoyl(16-(5-tetrazolyl)) = O=C(CCCCCCCCCCCCCCCc1nnn[nH]1)*; C20 diacid = O=C(O)CCCCCCCCCCCCCCCCCCC(=O)*; C18 diacid = O=C(O)CCCCCCCCCCCCCCCCC(=O)*; γGlu = O=C(O)[C@H](CCC(=O)[*:2])N[*:1]; Orn = NCCC[C@H](N)C(=O)O; AEEA = NCCOCCOCC(=O)O
Target: glucagon receptor (Homo sapiens, UniProt P47871)
Test: cell-based
Description: The cells (14000 per well) were incubated (37° C., 5% CO2) overnight in 384-well plates. Next day the cells were loaded with a calcium responsive dye that only distributed into the cytoplasm. Probenecid, an inhibitor of the organic anion transporter, was added to prevent the dye from leaving the cell. A PDE inhibitor was added to prevent formatted cAMP from being degraded. […] End point data were collected after 6 minutes. An increase in intracellular cAMP was proportional to an increased in calcium concentrations in the cytoplasm. […] EC50-values were calculated in Prism5.

Sequence of glucagon receptor (P47871 26-477): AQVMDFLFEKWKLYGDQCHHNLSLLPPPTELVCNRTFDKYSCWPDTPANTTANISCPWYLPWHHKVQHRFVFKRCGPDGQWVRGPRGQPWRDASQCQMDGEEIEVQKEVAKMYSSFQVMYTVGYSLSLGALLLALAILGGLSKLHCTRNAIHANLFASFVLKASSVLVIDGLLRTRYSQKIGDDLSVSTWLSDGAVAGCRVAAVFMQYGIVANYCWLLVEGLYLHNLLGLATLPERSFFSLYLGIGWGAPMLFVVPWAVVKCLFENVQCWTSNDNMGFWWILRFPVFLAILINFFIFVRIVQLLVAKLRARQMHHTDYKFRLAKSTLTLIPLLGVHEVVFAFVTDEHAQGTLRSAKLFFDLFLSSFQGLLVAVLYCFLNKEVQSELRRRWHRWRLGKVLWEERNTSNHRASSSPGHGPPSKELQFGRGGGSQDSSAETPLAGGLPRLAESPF

Structure (SMILES) | EC50 [nM]
CC(C)C[C@H](NC(=O)[C@H](Cc1ccc(O)cc1)NC(=O)[C@H](CCCCN)NC(=O)[C@H](CO)NC(=O)[C@H](Cc1ccc(O)cc1)NC(=O)[C@H](CC(=O)O)NC(=O)[C@H](CO)NC(=O)[C@@H](NC(=O)[C@H](Cc1ccccc1)NC(=O)[C@@H](NC(=O)CNC(=O)[C@H](CCC(N)=O)NC(=O)[C@H](CO)NC(=O)[C@@H](N)Cc1c[nH]cn1)[C@@H](C)O)[C@@H](C)O)C(=O)N[C@@H](CC(=O)O)C(=O)N[C@@H](CO)C(=O)N[C@@H](CCCCN)C(=O)N[C@@H](CCCCN)C(=O)N[C@@H](C)C(=O)N[C@@H](CCC(N)=O)C(=O)N[C@@H](CCC(=O)O)C(=O)N[C@@H](Cc1ccccc1)C(=O)N[C@H](C(=O)N[C@@H](CCCCNC(=O)COCCOCCNC(=O)COCCOCCNC(=O)[C@H](CCC(=O)O)NC(=O)CCCCCCCCCCCCCCCCC(=O)O)C(=O)N[C@@H](Cc1c[nH]c2ccccc12)C(=O)N[C@@H](CC(C)C)C(=O)N[C@@H](CC(C)C)C(=O)N[C@@H](CO)C(=O)N[C@H](C(=O)O)[C@@H](C)O)C(C)C [Example 72, N^ε24-[2-[2-[2-[[2-[2-[2-[[(2S)-4-carboxy-2-(17-carboxyheptadecanoylamino)butanoyl]amino]ethoxy]ethoxy]acetyl]amino]ethoxy]ethoxy]acetyl]-[Lys17,Lys18,Glu21,Lys24,Leu27,Ser28]-Glucagon] (H-HSQGTFTSDYSKYLDSKKAQEFVK([AEEA-AEEA-Glu-C18 diacid])WLLST-OH) | 0.057
CC(C)C[C@H](NC(=O)[C@H](Cc1ccc(O)cc1)NC(=O)[C@H](CCCCN)NC(=O)[C@H](CO)NC(=O)[C@H](Cc1ccc(O)cc1)NC(=O)[C@H](CC(=O)O)NC(=O)[C@H](CO)NC(=O)[C@@H](NC(=O)[C@H](Cc1ccccc1)NC(=O)[C@@H](NC(=O)CNC(=O)[C@H](CCC(N)=O)NC(=O)[C@H](CO)NC(=O)[C@@H](N)Cc1c[nH]cn1)[C@@H](C)O)[C@@H](C)O)C(=O)N[C@@H](CC(=O)O)C(=O)N[C@@H](CO)C(=O)N[C@@H](CCCCN)C(=O)N[C@@H](CCCCN)C(=O)N[C@@H](C)C(=O)N[C@@H](CCC(N)=O)C(=O)N[C@@H](CCC(=O)O)C(=O)N[C@@H](Cc1ccccc1)C(=O)N[C@H](C(=O)N[C@@H](CCCCNC(=O)COCCOCCNC(=O)COCCOCCNC(=O)CC[C@H](NC(=O)CCCCCCCCCCCCCCCc1nnn[nH]1)C(=O)O)C(=O)N[C@@H](Cc1c[nH]c2ccccc12)C(=O)N[C@@H](CC(C)C)C(=O)N[C@@H](CC(C)C)C(=O)N[C@@H](CO)C(=O)N[C@H](C(=O)O)[C@@H](C)O)C(C)C [Example 70, N^ε24-[2-[2-[2-[[2-[2-[2-[[(4S)-4-carboxy-4-[16-(1H-tetrazol-5-yl)hexadecanoylamino]butanoyl]amino]ethoxy]ethoxy]acetyl]amino]ethoxy]ethoxy]acetyl]-[Lys^17,Lys^18,Glu^21,Lys^24,Leu^27,Ser^28]-Glucagon] (H-HSQGTFTSDYSKYLDSKKAQEFVK([AEEA-AEEA-γGlu-Palmitoyl(16-(5-tetrazolyl))])WLLST-OH) | 0.134
CC(C)C[C@H](NC(=O)[C@H](CC(C)C)NC(=O)[C@H](Cc1c[nH]c2ccccc12)NC(=O)[C@H](CCC(N)=O)NC(=O)[C@@H](NC(=O)[C@H](Cc1ccccc1)NC(=O)[C@H](CCC(=O)O)NC(=O)[C@H](CCC(N)=O)NC(=O)[C@H](C)NC(=O)[C@H](CCCCN)NC(=O)[C@H](CCCCN)NC(=O)[C@H](CO)NC(=O)[C@H](CC(=O)O)NC(=O)[C@H](CC(C)C)NC(=O)[C@H](Cc1ccc(O)cc1)NC(=O)[C@H](CCCCN)NC(=O)[C@H](CO)NC(=O)[C@H](Cc1ccc(O)cc1)NC(=O)[C@H](CC(=O)O)NC(=O)[C@H](CO)NC(=O)[C@@H](NC(=O)[C@H](Cc1ccccc1)NC(=O)[C@@H](NC(=O)CNC(=O)[C@H](CCC(N)=O)NC(=O)[C@H](CO)NC(=O)[C@@H](N)Cc1c[nH]cn1)[C@@H](C)O)[C@@H](C)O)C(C)C)C(=O)N[C@@H](CC(N)=O)C(=O)N[C@@H](CCCCNC(=O)COCCOCCNC(=O)COCCOCCNC(=O)CC[C@H](NC(=O)CCCCCCCCCCCCCCCCC(=O)O)C(=O)O)C(=O)O [Example 68, N^ε29-[2-[2-[2-[[2-[2-[2-[[(4S)-4-carboxy-4-(17-carboxyheptadecanoylamino)butanoyl]amino]ethoxy]ethoxy]acetyl]amino]ethoxy]ethoxy]acetyl]-[Lys^17,Lys^18,Glu^21,Leu^27,Lys^29]-Glucagon] (H-HSQGTFTSDYSKYLDSKKAQEFVQWLLNK([AEEA-AEEA-γGlu-C18 diacid])-OH) | 0.053
CC(C)C[C@H](NC(=O)[C@H](Cc1ccc(O)cc1)NC(=O)[C@H](CCCCN)NC(=O)[C@H](CO)NC(=O)[C@H](Cc1ccc(O)cc1)NC(=O)[C@H](CC(=O)O)NC(=O)[C@H](CO)NC(=O)[C@@H](NC(=O)[C@H](Cc1ccccc1)NC(=O)[C@@H](NC(=O)CNC(=O)[C@H](CCC(N)=O)NC(=O)[C@H](CO)NC(=O)[C@@H](N)Cc1c[nH]cn1)[C@@H](C)O)[C@@H](C)O)C(=O)N[C@@H](CC(=O)O)C(=O)N[C@@H](CO)C(=O)N[C@@H](CCCCN)C(=O)N[C@@H](CCCCN)C(=O)N[C@@H](C)C(=O)N[C@@H](CCC(N)=O)C(=O)N[C@@H](CCC(=O)O)C(=O)N[C@@H](Cc1ccccc1)C(=O)N[C@H](C(=O)N[C@@H](CCCCNC(=O)COCCOCCNC(=O)COCCOCCNC(=O)CC[C@H](NC(=O)CCCCCCCCCCCCCCCCCCC(=O)O)C(=O)O)C(=O)N[C@@H](Cc1c[nH]c2ccccc12)C(=O)N[C@@H](CC(C)C)C(=O)N[C@@H](CC(C)C)C(=O)N[C@@H](CC(N)=O)C(=O)N[C@H](C(=O)O)[C@@H](C)O)C(C)C [Example 66, N^ε24-[2-[2-[2-[[2-[2-[2-[[(4S)-4-carboxy-4-(19-carboxynonadecanoylamino)butanoyl]amino]ethoxy]ethoxy]acetyl]amino]ethoxy]ethoxy]acetyl]-[Lys^17,Lys^18,Glu^21,Lys^24,Leu^27]-Glucagon] (H-HSQGTFTSDYSKYLDSKKAQEFVK([AEEA-AEEA-γGlu-C20 diacid])WLLNT-OH) | 6.35
CC(C)C[C@H](NC(=O)[C@H](Cc1ccc(O)cc1)NC(=O)[C@H](CCCCN)NC(=O)[C@H](CO)NC(=O)[C@H](Cc1ccc(O)cc1)NC(=O)[C@H](CC(=O)O)NC(=O)[C@H](CO)NC(=O)[C@@H](NC(=O)[C@H](Cc1ccccc1)NC(=O)[C@@H](NC(=O)CNC(=O)[C@H](CCC(N)=O)NC(=O)[C@H](CO)NC(=O)[C@@H](N)Cc1c[nH]cn1)[C@@H](C)O)[C@@H](C)O)C(=O)N[C@@H](CC(=O)O)C(=O)N[C@@H](CO)C(=O)N[C@@H](CCCCN)C(=O)N[C@@H](CCCNC(=N)N)C(=O)N[C@@H](C)C(=O)N[C@@H](CCC(N)=O)C(=O)N[C@@H](CCC(=O)O)C(=O)N[C@@H](Cc1ccccc1)C(=O)N[C@H](C(=O)N[C@@H](CCC(N)=O)C(=O)N[C@@H](Cc1c[nH]c2ccccc12)C(=O)N[C@@H](CC(C)C)C(=O)N[C@@H](CC(C)C)C(=O)N[C@@H](CCCCNC(=O)COCCOCCNC(=O)COCCOCCNC(=O)CC[C@H](NC(=O)CCCCCCCCCCCCCCCCC(=O)O)C(=O)O)C(=O)N[C@H](C(N)=O)[C@@H](C)O)C(C)C [Example 43, N^ε28 ([2-[2-[2-[[2-[2-[2-[[(4S)-5-hydroxy-4-[(18-hydroxy-18-oxooctadecanoyl)amino]-5-oxopentanoyl]amino]ethoxy]ethoxy]acetyl]amino]ethoxy]ethoxy]acetyl]) [Lys^17, Glu^21 Leu^27, Lys^28] Glucagon peptide amide] (H-HSQGTFTSDYSKYLDSKRAQEFVQWLLK([AEEA-AEEA-γGlu-C18 diacid])T-NH2; N-terminus assumed) | 0.003
CC(C)C[C@H](NC(=O)[C@H](Cc1ccc(O)cc1)NC(=O)[C@H](CCCCN)NC(=O)[C@H](CO)NC(=O)[C@H](Cc1ccc(O)cc1)NC(=O)[C@H](CC(=O)O)NC(=O)[C@H](CO)NC(=O)[C@@H](NC(=O)[C@H](Cc1ccccc1)NC(=O)[C@@H](NC(=O)CNC(=O)[C@H](CCC(N)=O)NC(=O)[C@H](CO)NC(=O)[C@@H](N)Cc1c[nH]cn1)[C@@H](C)O)[C@@H](C)O)C(=O)N[C@@H](CC(=O)O)C(=O)N[C@@H](CO)C(=O)N[C@@H](CCCCN)C(=O)N[C@@H](CCCCN)C(=O)N[C@@H](C)C(=O)N[C@@H](CCC(N)=O)C(=O)N[C@@H](CCC(=O)O)C(=O)N[C@@H](Cc1ccccc1)C(=O)N[C@H](C(=O)N[C@@H](CCCCNC(=O)COCCOCCNC(=O)CC[C@H](NC(=O)CCCCCCCCCCCCCCCCC(=O)O)C(=O)O)C(=O)N[C@@H](Cc1c[nH]c2ccccc12)C(=O)N[C@@H](CC(C)C)C(=O)N[C@@H](CC(C)C)C(=O)N[C@@H](CO)C(=O)N[C@H](C(=O)O)[C@@H](C)O)C(C)C [Example 71, N^ε24-[2-[2-[2-[[(4S)-4-carboxy-4-(17-carboxyheptadecanoylamino)butanoyl]amino]ethoxy]ethoxy]acetyl]-[Lys^17,Lys^18,Glu^21,Lys^24,Leu^27,Ser^28]-Glucagon] (H-HSQGTFTSDYSKYLDSKKAQEFVK([AEEA-γGlu-C18 diacid])WLLST-OH) | 0.032
CC(C)C[C@H](NC(=O)[C@H](Cc1ccc(O)cc1)NC(=O)[C@H](CCCCN)NC(=O)[C@H](CO)NC(=O)[C@H](Cc1ccc(O)cc1)NC(=O)[C@H](CC(=O)O)NC(=O)[C@H](CO)NC(=O)[C@@H](NC(=O)[C@H](Cc1ccccc1)NC(=O)[C@@H](NC(=O)CNC(=O)[C@H](CCC(N)=O)NC(=O)[C@H](CO)NC(=O)[C@@H](N)Cc1c[nH]cn1)[C@@H](C)O)[C@@H](C)O)C(=O)N[C@@H](CC(=O)O)C(=O)N[C@@H](CO)C(=O)N[C@@H](CCCCN)C(=O)N[C@@H](CCCCN)C(=O)N[C@@H](C)C(=O)N[C@@H](CCC(N)=O)C(=O)N[C@@H](CCC(=O)O)C(=O)N[C@@H](Cc1ccccc1)C(=O)N[C@H](C(=O)N[C@@H](CCCNC(=O)COCCOCCNC(=O)COCCOCCNC(=O)CC[C@H](NC(=O)CCCCCCCCCCCCCCCCC(=O)O)C(=O)O)C(=O)N[C@@H](Cc1c[nH]c2ccccc12)C(=O)N[C@@H](CC(C)C)C(=O)N[C@@H](CC(C)C)C(=O)N[C@@H](CO)C(=O)N[C@H](C(=O)O)[C@@H](C)O)C(C)C [Example 73, N^ε24-[2-[2-[2-[[2-[2-[2-[[(4S)-4-carboxy-4-(17-carboxyheptadecanoylamino)butanoyl]amino]ethoxy]ethoxy]acetyl]amino]ethoxy]ethoxy]acetyl]-[Lys^17,Lys^18,Glu^21,Orn^24,Leu^27,Ser^28]-Glucagon] (H-HSQGTFTSDYSKYLDSKKAQEFV[Orn]([AEEA-AEEA-γGlu-C18 diacid])WLLST-OH) | 0.036

From patent US20170051034A1 (Novo Nordisk A/S, priority 2010, published 2017)
